In ChEMBL document CHEMBL4184210, “Optimization of novel monobactams with activity against carbapenem-resistant Enterobacteriaceae - Identification of LYS228” (Bioorg Med Chem Lett, 2018):
In brackets after ≈: the same amount, converted by molar mass. Activity calls are given as the source filed them. No cut-off for these calls is given here.

Experiments:
Beta-lactamase SHV-12 = target: T1, Beta-lactamase SHV-12 (Escherichia coli, UniProt Q7X574); assay: Stability assessed as assessed as Escherichia coli beta-lactamase SHV-12-mediated compound hydrolysis by measuring molar enthalpy of hydrolysis at 1 mM by isothermal titration calorimetry; type: ADME; conditions: 1000 µM
T1 sequence (Q7X574 whole entry): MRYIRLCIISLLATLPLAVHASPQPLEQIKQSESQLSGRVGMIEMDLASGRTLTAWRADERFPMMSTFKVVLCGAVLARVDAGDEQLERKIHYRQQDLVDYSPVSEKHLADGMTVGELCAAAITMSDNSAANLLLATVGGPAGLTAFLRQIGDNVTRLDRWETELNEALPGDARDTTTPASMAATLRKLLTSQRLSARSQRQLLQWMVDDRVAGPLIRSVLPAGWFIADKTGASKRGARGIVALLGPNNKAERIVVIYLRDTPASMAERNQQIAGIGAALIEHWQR

[1] = Stability assessed as assessed as Escherichia coli beta-lactamase CTX-M-15-mediated compound hydrolysis by measuring molar enthalpy of hydrolysis at 1 mM by isothermal titration calorimetry; type: ADME; conditions: 1000 µM
[2] = Stability assessed as assessed as Escherichia coli beta-lactamase KPC-2-mediated compound hydrolysis by measuring molar enthalpy of hydrolysis at 1 mM by isothermal titration calorimetry; type: ADME; conditions: 1000 µM
[3] = AUC in mouse at […], iv; type: ADME, organism-based; conditions: in vivo
[4] = AUC in rat at 10 mg/kg, iv; type: ADME, organism-based; conditions: in vivo
[5] = AUC in dog at 10 mg/kg, iv; type: ADME, organism-based, Canis lupus familiaris; conditions: in vivo
[6] = Drug excretion in rat assessed as unchanged parent drug level at 10 mg/kg, iv; type: ADME, organism-based; conditions: in vivo, read-out: Drug excretion
[7] = Drug excretion in dog assessed as unchanged parent drug level at 10 mg/kg, iv; type: ADME, organism-based, Canis lupus familiaris; conditions: in vivo, read-out: Drug excretion
Klebsiella pneumoniae = assay: Antimicrobial activity against Klebsiella pneumoniae expressing beta-lactamase NDM-1 infected in neutropenic mouse thigh infection model assessed as compound dose causing 1 log10 CFU reduction in bacterial load dosed subcutaneously every 4 hrs; type: functional
Escherichia coli [8] = assay: microbe, parasite or virus in culture
Escherichia coli [9] = assay: microbe, parasite or virus in culture; remark: listed apart in the source
Escherichia coli [10] = assay: microbe, parasite or virus in culture; remark: listed apart in the source
Escherichia coli [11] = assay: microbe, parasite or virus in culture; remark: listed apart in the source
Escherichia coli [12] = assay: microbe, parasite or virus in culture; remark: listed apart in the source
Escherichia coli [13] = assay: microbe, parasite or virus in culture; remark: listed apart in the source
Escherichia coli [14] = assay: microbe, parasite or virus in culture; remark: listed apart in the source
Escherichia coli [15] = assay: microbe, parasite or virus in culture; remark: listed apart in the source
Escherichia coli [16] = assay: microbe, parasite or virus in culture; remark: listed apart in the source
Escherichia coli [17] = assay: microbe, parasite or virus in culture; remark: listed apart in the source
Escherichia coli [18] = assay: microbe, parasite or virus in culture; remark: listed apart in the source
Escherichia coli [19] = assay: microbe, parasite or virus in culture; remark: listed apart in the source
Escherichia coli [20] = assay: microbe, parasite or virus in culture; remark: listed apart in the source
Escherichia coli [21] = assay: microbe, parasite or virus in culture; remark: listed apart in the source
Escherichia coli [22] = assay: microbe, parasite or virus in culture; remark: listed apart in the source
Escherichia coli [23] = assay: microbe, parasite or virus in culture; remark: listed apart in the source
Escherichia coli [24] = assay: microbe, parasite or virus in culture; remark: listed apart in the source
Escherichia coli [25] = assay: microbe, parasite or virus in culture; remark: listed apart in the source

Q: Which results are given for `C[C@H]1[C@H](NC(=O)/C(=N\OC(C)(C)C(=O)O)c2csc(N)n2)C(=O)N1S(=O)(=O)O` [AZTREONAM]?
A: Stability (Beta-lactamase SHV-12): Unstable; Stability [1]: Unstable; Stability [2]: Unstable; AUC [3]: 5000 ng·h/mL; AUC [4]: 13000 ng·h/mL; AUC [5]: 13000 ng·h/mL; dose excreted [6]: 40%; dose excreted [7]: 53%; Activity (Klebsiella pneumoniae): inactive; MIC (Escherichia coli [8]): 16 µg/mL (≈ 36.7 µM); MIC (Escherichia coli [9]): 1 µg/mL (≈ 2.3 µM); MIC (Escherichia coli [10]): 256 µg/mL (≈ 588 µM); MIC (Escherichia coli [11]): > 1020 µg/mL; MIC (Escherichia coli [12]): 128 µg/mL (≈ 294 µM); MIC (Escherichia coli [13]): 16 µg/mL (≈ 36.7 µM); MIC (Escherichia coli [14]): 8 µg/mL (≈ 18.4 µM); MIC (Escherichia coli [15]): 8 µg/mL (≈ 18.4 µM); MIC (Escherichia coli [16]): 16 µg/mL (≈ 36.7 µM); MIC (Escherichia coli [17]): 4 µg/mL (≈ 9.19 µM); MIC (Escherichia coli [18]): 1 µg/mL (≈ 2.3 µM); MIC (Escherichia coli [19]): 4 µg/mL (≈ 9.19 µM); MIC (Escherichia coli [20]): 8 µg/mL (≈ 18.4 µM); MIC (Escherichia coli [21]): 4 µg/mL (≈ 9.19 µM); MIC (Escherichia coli [22]): 1 µg/mL (≈ 2.3 µM); MIC (Escherichia coli [23]): 16 µg/mL (≈ 36.7 µM); MIC (Escherichia coli [24]): 1 µg/mL (≈ 2.3 µM); MIC (Escherichia coli [25]): 8 µg/mL (≈ 18.4 µM)
